Structures can show the parent of a compound that is named as a salt.
Columns and labels:
[1] = tested on: ICR male mice; assay: Toxicity after i.v. administration to ICR male mice; assay type: in vivo; conditions: 100 mg/kg i.v., 8 to 9 weeks of age, n=5 to 6
Text: Being low in toxicity, the compounds of the present invention are suitable for use as medicines.

[2] = tested on: 5-HT3 receptor; assay: Receptor binding experiment
[3] = biological target: T1, 5-HT3 receptor (Cavia porcellus, UniProt O70212); assay: 5-HT3 receptor agonistic activity: contractile response of isolated guinea pig distal colon strips; assay type: cell-based; conditions: read-out: Max. response
T1 construct: Distal colons were excised from male Hartley guinea pigs; from tissue; host or cells: distal colon strips of male Hartley guinea pigs
T1 sequence (O70212 20-490): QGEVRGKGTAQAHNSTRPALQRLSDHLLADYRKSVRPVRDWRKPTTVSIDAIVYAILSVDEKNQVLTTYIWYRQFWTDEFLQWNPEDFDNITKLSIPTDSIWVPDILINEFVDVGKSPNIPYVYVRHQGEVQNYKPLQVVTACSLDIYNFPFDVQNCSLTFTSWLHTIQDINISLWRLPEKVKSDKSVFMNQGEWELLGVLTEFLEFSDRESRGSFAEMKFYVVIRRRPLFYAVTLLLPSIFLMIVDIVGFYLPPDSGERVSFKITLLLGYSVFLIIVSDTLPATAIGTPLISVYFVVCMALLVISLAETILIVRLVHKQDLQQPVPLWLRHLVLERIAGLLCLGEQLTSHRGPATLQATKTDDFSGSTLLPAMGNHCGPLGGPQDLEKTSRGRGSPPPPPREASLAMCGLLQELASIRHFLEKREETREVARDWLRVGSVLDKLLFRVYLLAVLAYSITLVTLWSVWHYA
Text: Distal colons were excised from male Hartley guinea pigs (500 to 800 g) to prepare strips of about 20 mm.
Each strip was longitudinally suspended in a Magnus tube, and contractile response was isometrically measured.

| Structure (SMILES) | side effects [1] | affinity for the 5-HT3 receptor [2] | Emax [3] [%] |
| --- | --- | --- | --- |
| c1ccc2c(c1)Cc1sc(Cc3c[nH]cn3)nc1-2 [Example 1, 2-(4-imidazolylmethyl)-8H-indeno[1,2-d]thiazole] | do not cause serious grave side effects | high affinity | 89.9 |
| O=C(O)/C=C/C(=O)O.c1ccc2c(c1)CCc1sc(Cc3c[nH]cn3)nc1-2 [Example 3, 2-(4-Imidazolylmethyl)-4,5-dihydronaphtho[1,2-d]thiazole fumarate] | do not cause serious grave side effects |  | 80.3 |
| c1ccc2c(c1)CCCc1sc(Cc3c[nH]cn3)nc1-2 [Example 4, 2-(4-Imidazolylmethyl)-5,6-dihydro-4H-benzo[6,7]-cyclohepto[1,2-d]thiazole fumarate] |  |  | 50 |
| c1ccc2c(c1)Cc1sc(Cn3ccnc3)nc1-2 [Example 10, 2-(1-Imidazolylmethyl)-8H-indeno[1,2-d]thiazole fumarate] |  |  | 60.9 |
| Cn1cncc1Cc1nc2c(s1)Cc1ccccc1-2 [Example 15, 2-[(1-Methyl-5-imidazolyl)methyl]-8H-indeno[1,2-d]thiazole] |  |  | 42.6 |
| c1ccc2c(c1)ccc1sc(Cn3ccnc3)nc12 [Example 30, 2-(1-imidazolylmethyl)naphtho[1,2-d]thiazole] |  |  | 78.2 |

Reference: patent publication US5565479A, “Condensed thiazole derivative, production process thereof and pharmaceutical composition thereof” (Yamanouchi Pharmaceutical Co., Ltd., priority 1992, dated 1996)
